Results published in ChEMBL document CHEMBL1201862, “PubChem BioAssay data set” (2004).
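A five-concentration, 48-hour dose response in 96-well plates underlies each endpoint, interpolated linearly between surrounding concentrations. The concentration for 50% growth inhibition is given as GI50.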 The source made the active and inactive calls. Cut-off read from the data, not from the text of the source: active = GI50 up to about 1.1 µM and inactive = higher.

What was measured:
Test in all cases: growth of human tumour cells (NCI), 48 h
[1] = test system: ACHN
[2] = test system: DU-145
[3] = test system: HCT-116
[4] = test system: HL-60
[5] = test system: HT-29
[6] = test system: M14
[7] = test system: MCF7
[8] = test system: MOLT-4
[9] = test system: NCI-H226
[10] = test system: OVCAR-4
[11] = test system: RXF 393
[12] = test system: SK-MEL-28
[13] = test system: SK-MEL-2
[14] = test system: SK-MEL-5
[15] = test system: SNB-19
[16] = test system: SNB-75
[17] = test system: SR
[18] = test system: SW-620
[19] = test system: HCC 2998

SMILES	GI50 [1]	GI50 [2]	GI50 [3]	GI50 [4]	GI50 [5]	GI50 [6]	GI50 [7]	GI50 [8]	GI50 [9]	GI50 [10]	GI50 [11]	GI50 [12]	GI50 [13]	GI50 [14]	GI50 [15]	GI50 [16]	GI50 [17]	GI50 [18]	GI50 [19]
Cc1cc(C2(c3cc(C)c(O)c(C(=O)O)c3)OS(=O)(=O)c3ccccc32)cc(C(=O)O)c1O	> 100 µM (inactive)	> 100 µM (inactive)	> 100 µM (inactive)	> 100 µM (inactive)	> 100 µM (inactive)	> 100 µM (inactive)	> 100 µM (inactive)	0.205 µM (active)	> 100 µM (inactive)	> 100 µM (inactive)	> 100 µM (inactive)	> 100 µM (inactive)	> 100 µM (inactive)	> 100 µM (inactive)	> 100 µM (inactive)	> 100 µM (inactive)	> 100 µM (inactive)	> 100 µM (inactive)	–
CCc1cccc(CC)c1Nc1nc2c(s1)C(=O)c1ccccc1C2=O	17.6 µM (inactive)	21.6 µM (inactive)	16.7 µM (inactive)	26.4 µM (inactive)	–	17.4 µM (inactive)	22.4 µM (inactive)	23.2 µM (inactive)	–	–	24.8 µM (inactive)	19.1 µM (inactive)	18.6 µM (inactive)	20.7 µM (inactive)	17 µM (inactive)	11.8 µM (inactive)	23.3 µM (inactive)	26.1 µM (inactive)	18.7 µM (inactive)
O=C(O)/C=C/C(=O)O [FUMARIC ACID]	> 100 µM (inactive)	> 100 µM (inactive)	> 100 µM (inactive)	> 100 µM (inactive)	> 100 µM (inactive)	> 100 µM (inactive)	> 100 µM (inactive)	> 100 µM (inactive)	> 100 µM (inactive)	> 100 µM (inactive)	–	> 100 µM (inactive)	> 100 µM (inactive)	> 100 µM (inactive)	> 100 µM (inactive)	> 100 µM (inactive)	> 100 µM (inactive)	> 100 µM (inactive)	> 100 µM (inactive)
COc1cc(C(=O)/C=C/c2ccc(OCCSCCCCCCCCCCSCCOc3ccc(/C=C/C(=O)c4cc(OC)c(OC)c(OC)c4)cc3)cc2)cc(OC)c1OC	> 100 µM (inactive)	> 100 µM (inactive)	> 100 µM (inactive)	> 100 µM (inactive)	> 100 µM (inactive)	> 100 µM (inactive)	> 100 µM (inactive)	> 100 µM (inactive)	–	–	> 100 µM (inactive)	> 100 µM (inactive)	> 100 µM (inactive)	> 100 µM (inactive)	> 100 µM (inactive)	> 100 µM (inactive)	> 100 µM (inactive)	> 100 µM (inactive)	> 100 µM (inactive)
C=C(C(=O)OCC)C(=O)OCC	> 100 µM (inactive)	> 100 µM (inactive)	> 100 µM (inactive)	–	> 100 µM (inactive)	> 100 µM (inactive)	> 100 µM (inactive)	> 100 µM (inactive)	> 100 µM (inactive)	–	> 100 µM (inactive)	> 100 µM (inactive)	> 100 µM (inactive)	> 100 µM (inactive)	> 100 µM (inactive)	> 100 µM (inactive)	20.7 µM (inactive)	> 100 µM (inactive)	> 100 µM (inactive)
c1ccc2c(c1)sc1c3cnccc3ccc21	90.4 µM (inactive)	> 100 µM (inactive)	> 100 µM (inactive)	40.6 µM (inactive)	99.8 µM (inactive)	> 100 µM (inactive)	24.1 µM (inactive)	19.5 µM (inactive)	24.2 µM (inactive)	> 100 µM (inactive)	–	> 100 µM (inactive)	> 100 µM (inactive)	> 100 µM (inactive)	> 100 µM (inactive)	> 100 µM (inactive)	11.6 µM (inactive)	76.4 µM (inactive)	> 100 µM (inactive)
CC(=O)/C=N/CC(=O)O	> 100 µM (inactive)	> 100 µM (inactive)	> 100 µM (inactive)	> 100 µM (inactive)	> 100 µM (inactive)	> 100 µM (inactive)	> 100 µM (inactive)	> 100 µM (inactive)	> 100 µM (inactive)	> 100 µM (inactive)	> 100 µM (inactive)	> 100 µM (inactive)	> 100 µM (inactive)	> 100 µM (inactive)	> 100 µM (inactive)	> 100 µM (inactive)	> 100 µM (inactive)	> 100 µM (inactive)	–
OC(c1ccccc1)c1c(-c2ccccc2)[nH]c(-c2ccccc2)c1C(O)c1ccccc1 (centres undefined)	3.17 µM (inactive)	5.28 µM (inactive)	2.84 µM (inactive)	2.28 µM (inactive)	3.99 µM (inactive)	3.66 µM (inactive)	3.78 µM (inactive)	2.94 µM (inactive)	2.4 µM (inactive)	< 0.01 µM (active)	2.88 µM (inactive)	3.4 µM (inactive)	1.95 µM (inactive)	2.55 µM (inactive)	3.56 µM (inactive)	–	4.1 µM (inactive)	4.9 µM (inactive)	7.24 µM (inactive)
COc1ccc(OC)c(N2C(=O)CSC2c2cc(OC)c(OC)c(OC)c2)c1 (centres undefined)	> 100 µM (inactive)	> 100 µM (inactive)	> 100 µM (inactive)	> 100 µM (inactive)	> 100 µM (inactive)	> 100 µM (inactive)	71.1 µM (inactive)	> 100 µM (inactive)	> 100 µM (inactive)	> 100 µM (inactive)	–	> 100 µM (inactive)	> 100 µM (inactive)	99.8 µM (inactive)	> 100 µM (inactive)	–	46 µM (inactive)	> 100 µM (inactive)	> 100 µM (inactive)
O=C1c2ccccc2-c2cc([N+](=O)[O-])c([N+](=O)[O-])cc21	1.68 µM (inactive)	1.77 µM (inactive)	1.94 µM (inactive)	0.564 µM (active)	1.91 µM (inactive)	1.77 µM (inactive)	1.38 µM (inactive)	0.482 µM (active)	4.21 µM (inactive)	1.81 µM (inactive)	1.33 µM (inactive)	2.9 µM (inactive)	1.87 µM (inactive)	1.87 µM (inactive)	1.71 µM (inactive)	1.82 µM (inactive)	0.13 µM (active)	1.58 µM (inactive)	–
C=C(C)[C@@H]1CC[C@]2(C(=O)O)CC[C@]3(C)[C@H](CC[C@@H]4[C@@]5(C)CC[C@H](C(=O)/C=C/c6ccc(O)cc6)C(C)(C)[C@@H]5CC[C@]43C)[C@@H]12	–	5.73 µM (inactive)	2.51 µM (inactive)	1.15 µM (inactive)	3.38 µM (inactive)	7.13 µM (inactive)	3.67 µM (inactive)	2.85 µM (inactive)	–	9.98 µM (inactive)	6.41 µM (inactive)	11.9 µM (inactive)	16.3 µM (inactive)	2.55 µM (inactive)	6.92 µM (inactive)	> 10 µM (inactive)	4.06 µM (inactive)	2.93 µM (inactive)	3.21 µM (inactive)
OCC(CN1CCCCC1)(CN1CCCCC1)CN1CCCCC1	> 100 µM (inactive)	> 100 µM (inactive)	> 100 µM (inactive)	> 100 µM (inactive)	> 100 µM (inactive)	> 100 µM (inactive)	> 100 µM (inactive)	> 100 µM (inactive)	> 100 µM (inactive)	> 100 µM (inactive)	> 100 µM (inactive)	> 100 µM (inactive)	–	> 100 µM (inactive)	> 100 µM (inactive)	–	> 100 µM (inactive)	> 100 µM (inactive)	> 100 µM (inactive)
O=C(Nc1ccc2ncccc2c1)Nc1ccc2ncccc2c1	> 100 µM (inactive)	> 100 µM (inactive)	> 100 µM (inactive)	–	> 100 µM (inactive)	> 100 µM (inactive)	> 100 µM (inactive)	> 100 µM (inactive)	> 100 µM (inactive)	> 100 µM (inactive)	> 100 µM (inactive)	> 100 µM (inactive)	> 100 µM (inactive)	> 100 µM (inactive)	> 100 µM (inactive)	> 100 µM (inactive)	> 100 µM (inactive)	> 100 µM (inactive)	> 100 µM (inactive)
COc1cc(OC)c2c(c1-c1ccc(C)cc1)CC(C)N(Cc1ccccc1)[C@H]2C (some centres undefined)	18.3 µM (inactive)	86.3 µM (inactive)	20.3 µM (inactive)	12.2 µM (inactive)	18.5 µM (inactive)	43.2 µM (inactive)	28.5 µM (inactive)	23.6 µM (inactive)	49.4 µM (inactive)	–	–	38.2 µM (inactive)	–	19.4 µM (inactive)	67.9 µM (inactive)	6.9 µM (inactive)	30.3 µM (inactive)	34.8 µM (inactive)	31.1 µM (inactive)
N#CCCNCCN(CCN(C(=O)Nc1ccccc1)c1ccccc1)C(=O)Nc1ccccc1	47.2 µM (inactive)	66.8 µM (inactive)	21.4 µM (inactive)	35.9 µM (inactive)	33.2 µM (inactive)	21.1 µM (inactive)	37.8 µM (inactive)	39.4 µM (inactive)	54.7 µM (inactive)	–	31.7 µM (inactive)	18.7 µM (inactive)	38.4 µM (inactive)	19.9 µM (inactive)	83.2 µM (inactive)	25.8 µM (inactive)	34.2 µM (inactive)	59.7 µM (inactive)	16.1 µM (inactive)
COc1ccccc1NC(=S)N/N=C/c1cccc(C)n1	2.71 µM (inactive)	4.29 µM (inactive)	3.4 µM (inactive)	3.15 µM (inactive)	4.17 µM (inactive)	2.18 µM (inactive)	3.78 µM (inactive)	1.34 µM (inactive)	5.82 µM (inactive)	14.2 µM (inactive)	–	8.53 µM (inactive)	5.64 µM (inactive)	4.17 µM (inactive)	10.9 µM (inactive)	5.62 µM (inactive)	2.43 µM (inactive)	3.14 µM (inactive)	10.5 µM (inactive)
